{"source": "patent US6486147B2", "about": "“Cosmetic composition containing a steroid and a 2-alkylalkanol or an ester thereof” (L'Oreal, priority 2000, dated 2002)", "assay": "Solubility of DHEA in various conventional solubilizing agents", "assay_type": "physicochemical", "conditions": "for Solubility after one month (AT): ambient temperature", "protocol": "The solubility of DHEA in various conventional solubilizing agents is mentioned in Table 2 below by way of comparison (the percentage of DHEA is calculated with respect to the total weight of DHEA and of solvent; AT refers to ambient temperature): […]", "key": {"[1]": {"conditions": "solvent Benzoate of C12-15 alcohols, 3% DHEA"}, "[2]": {"conditions": "solvent Propylene glycol, 5-10% DHEA"}, "[3]": {"conditions": "solvent Propylene glycol, 15-20% DHEA"}}}
{"smiles": "C[C@]12CC[C@H](O)CC1=CC[C@@H]1[C@@H]2CC[C@]2(C)C(=O)CC[C@@H]12", "note": "[DHEA, dehydroepiandrosterone]", "values": [{"measurement": "Solubility", "setting": "[1]", "value": "Soluble at 50 °C"}, {"measurement": "Solubility after one month (AT)", "setting": "[1]", "value": "Crystals"}, {"measurement": "Solubility", "setting": "solvent Dodecanol, 10% DHEA", "value": "Insoluble even at"}, {"measurement": "Solubility after one month (AT)", "setting": "solvent Dodecanol, 10% DHEA", "value": "Crystals"}, {"measurement": "Solubility", "setting": "solvent Phenoxyethanol, 20% DHEA (of total weight of DHEA and solvent)", "value": "Soluble at AT"}, {"measurement": "Solubility after one month (AT)", "setting": "solvent Phenoxyethanol, 20% DHEA", "value": "Crystals"}, {"measurement": "Solubility", "setting": "[2]", "value": "Soluble at 50 °C"}, {"measurement": "Solubility after one month (AT)", "setting": "[2]", "value": "Crystals"}, {"measurement": "Solubility", "setting": "[3]", "value": "Insoluble at AT"}, {"measurement": "Solubility after one month (AT)", "setting": "[3]", "value": "Crystals"}]}
